pIC50: −log10 of the molar value.
Test system: 699152-130-R-J1-PDC complex spheroid growth
Assay: Anticancer human tumor 699152-130-R-J1-PDC patient-derived pancreatic carcinoma cell line growth inhibition [AhR]
Settings: for pIC50: curve of first compound; for viability, T/C: stronger effect = lower value
Description: Multicellular complex tumor spheroid response to aryl hydrocarbon receptor antagonists in combination with a variety of drugs and investigational agents in selected tumor cell lines
The current study was undertaken to assess response to aryl hydrocarbon receptor antagonists in combination with standard-of-care drugs and investigational agents in solid tumor complex spheroid models. Complex spheroids include a stromal component modeled by human endothelial cells (HUVEC) and fibroblasts modeled by human mesenchymal stem cells (MSCs). The concentration ranges selected for each drug and investigational agent were based upon clinically achievable concentrations if the clinical Cmax of the agent was known.
Compounds. The drugs and investigational agents: BAY 2416964 (NSC825713), GNF351 (NSC835774), CH-223191 (NSC835775), CPI-455 (NSC825282), aza-TdCyd (NSC777586), decitabine (NSC127716), belinostat (NSC758774), entinostat (NSC756642), pevonedistat (NSC761192), tazemetostat (NSC777109), talazoparib (NSC765396), olaparib (NSC753686), selinexor (NSC780203), nedisertib (M3814, NSC802822), bortezomib (NSC756655), venetoclax (NSC766270), doxorubicin (NSC123127), elimusertib (BAY189344, NSC800525), ceralasertib (AZD6738, NSC777638), TAK-243 (NSC785004), alisertib (NSC759677), etoposide (NSC141540), topotecan (NSC609699), eribulin (NSC707389), gemcitabine (NSC613327), carboplatin (NSC241240), cisplatin (NSC119875), and SN-38 (NSC673596) were obtained from the National Cancer Institute (NCI) Developmental Therapeutics Program Chemical Repository (32). The FDA-approved anticancer drug set is available from the Developmental Therapeutics Program at https://dtp.cancer.gov/organization/dscb/obtaining/available plates.htm. […] The stock solutions were prepared in dimethyl sulfoxide (DMSO, Sigma-Aldrich, St. Louis, MO, cat. D2650), except for the platinum compounds which were prepared in saline (Quality Biological, Gaithersburg, MD, cat. 114-055-101), at 800-fold the tested concentration and stored at -70 degrees C prior to their use. All drugs and investigational agents were tested over a range starting from a high concentration at or near the clinical Cmax and decreasing in half-log increments. If the clinical Cmax for an agent had not been determined, the highest concentration tested was 10 microM (Table 1).
Cell Culture. All cells were maintained in an incubator at 37 degrees C and 5% CO2 with 95% humidity. The PDC lines were cultured according to standard operating procedures established by the NCI PDMR (https://pdmr.cancer.gov). Briefly, all PDCs were thawed and cultured in Matrigel-coated flasks prepared with a working solution of 1X Ham's F-12 nutrient mix, without supplementation (Invitrogen, Waltham, MA, cat. 11765054), 100 U/mL penicillin-streptomycin (Invitrogen, cat. 15140122), and 2.5% Matrigel (Corning Inc., Corning, NY, cat. 354248) for the first three passages. All PDCs were cultured in complete DMEM/F-12 media containing advanced DMEM/F-12 (Invitrogen, cat. 12634028), 4.9% defined fetal bovine serum, heat inactivated (HyClone Laboratories Inc., Logan, UT, cat. SH30070.03HI), 389 ng/mL hydrocortisone (Sigma-Aldrich, cat. H4001), 9.7 ng/mL human EGF recombinant protein (Invitrogen, cat. PHG0313), 23.4 microg/mL adenine (Sigma-Aldrich, cat. A2786), 97.3 U/mL penicillin-streptomycin (Invitrogen, cat. 15140122), 1.9 mM L-glutamine (Invitrogen, cat. 25030081), and 9.7 microM Y-27632 dihydrochloride (Tocris Bioscience, Bristol, United Kingdom, cat. 1254). The PDCs were cultured in complete DMEM/F12 media without 10 microM Y-27632 dihydrochloride for at least two passages prior to the screen. The established cell lines NCI-H1341 and […] were cultured in DMEM/F-12, HEPES (Invitrogen, cat. 11330032), 5% defined fetal bovine serum (HyClone Laboratories Inc., cat. SH30070.03), ITS premix universal culture supplement [insulin (5 microg/mL), transferrin (5 microg/mL), and selenious acid (5 ng/mL)] […]

[1] = second compound 0.1 µM, first compound 0.00316 µM
[2] = second compound 0.1 µM, first compound 0.01 µM
[3] = second compound 0.1 µM, first compound 0.0316 µM
[4] = second compound 0.1 µM, first compound 0.1 µM
[5] = second compound 0.316 µM, first compound 0.00316 µM
[6] = second compound 0.316 µM, first compound 0.01 µM
[7] = second compound 0.316 µM, first compound 0.0316 µM
[8] = second compound 0.316 µM, first compound 0.1 µM
[9] = second compound 1 µM, first compound 0.00316 µM
[10] = second compound 1 µM, first compound 0.01 µM
[11] = second compound 1 µM, first compound 0.0316 µM
[12] = second compound 1 µM, first compound 0.1 µM
[13] = second compound 3.16 µM, first compound 0.00316 µM
[14] = second compound 3.16 µM, first compound 0.01 µM
[15] = second compound 3.16 µM, first compound 0.0316 µM
[16] = second compound 3.16 µM, first compound 0.1 µM
[17] = second compound 10 µM, first compound 0.00316 µM
[18] = second compound 10 µM, first compound 0.01 µM
[19] = second compound 10 µM, first compound 0.0316 µM
[20] = second compound 10 µM, first compound 0.1 µM
[21] = second compound 0.1 µM, first compound 0.316 µM
[22] = second compound 0.1 µM, first compound 1 µM
[23] = second compound 0.1 µM, first compound 3.16 µM
[24] = second compound 0.1 µM, first compound 10 µM
[25] = second compound 0.316 µM, first compound 0.316 µM
[26] = second compound 0.316 µM, first compound 1 µM
[27] = second compound 0.316 µM, first compound 3.16 µM
[28] = second compound 0.316 µM, first compound 10 µM
[29] = second compound 1 µM, first compound 0.316 µM
[30] = second compound 1 µM, first compound 1 µM
[31] = second compound 1 µM, first compound 3.16 µM
[32] = second compound 1 µM, first compound 10 µM
[33] = second compound 3.16 µM, first compound 0.316 µM
[34] = second compound 3.16 µM, first compound 1 µM
[35] = second compound 3.16 µM, first compound 3.16 µM
[36] = second compound 3.16 µM, first compound 10 µM
[37] = second compound 10 µM, first compound 0.316 µM
[38] = second compound 10 µM, first compound 1 µM
[39] = second compound 10 µM, first compound 3.16 µM
[40] = second compound 10 µM, first compound 10 µM
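Note: compound exposure lasted 7 days after spheroids had grown for 3 days.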

SMILES | pIC50 (second compound 0.1 µM) | pIC50 (second compound 0.316 µM) | pIC50 (second compound 1 µM) | pIC50 (second compound 3.16 µM) | pIC50 (second compound 10 µM) | viability, T/C [3] [%] | viability, T/C [4] [%] | viability, T/C [7] [%] | viability, T/C [8] [%] | viability, T/C [11] [%] | viability, T/C [12] [%] | viability, T/C [15] [%] | viability, T/C [16] [%] | viability, T/C [19] [%] | viability, T/C [20] [%] | viability, T/C [21] [%] | viability, T/C [22] [%] | viability, T/C [25] [%] | viability, T/C [26] [%] | viability, T/C [29] [%] | further results
CC[C@@]1(O)C(=O)OCc2c1cc1n(c2=O)Cc2cc3c(CN(C)C)c(O)ccc3nc2-1 + CC(CO)NC(=O)c1cc(-c2ccc(Cl)cc2)nn(-c2cnn(C)c2)c1=O | < 7.00 | < 7.00 | < 7.00 | < 7.00 | < 7.00 | 86.7 | 64.7 | 76.3 | 60.3 | 83.6 | 62.5 | 71.8 | 60.7 | 72.3 | 57 | – | – | – | – | – | viability, T/C (second compound 0.1 µM, first compound 0.000316 µM): 101%; viability, T/C (second compound 0.1 µM, first compound 0.001 µM): 102%; viability, T/C [1]: 112%; viability, T/C [2]: 98.6%; viability, T/C (second compound 0.316 µM, first compound 0.000316 µM): 94.1%; viability, T/C (second compound 0.316 µM, first compound 0.001 µM): 107%; viability, T/C [5]: 93%; viability, T/C [6]: 83.5%; viability, T/C (second compound 1 µM, first compound 0.000316 µM): 96.8%; viability, T/C (second compound 1 µM, first compound 0.001 µM): 108%; viability, T/C [9]: 92.5%; viability, T/C [10]: 79.4%; viability, T/C (second compound 3.16 µM, first compound 0.000316 µM): 89.4%; viability, T/C (second compound 3.16 µM, first compound 0.001 µM): 102%; viability, T/C [13]: 93.7%; viability, T/C [14]: 84%; viability, T/C (second compound 10 µM, first compound 0.000316 µM): 102%; viability, T/C (second compound 10 µM, first compound 0.001 µM): 103%; viability, T/C [17]: 86.3%; viability, T/C [18]: 80.7%
COc1cc(C2c3cc4c(cc3C(OC3OC5COC(C)OC5C(O)C3O)C3COC(=O)C23)OCO4)cc(OC)c1O (stereo not given) + CC(CO)NC(=O)c1cc(-c2ccc(Cl)cc2)nn(-c2cnn(C)c2)c1=O | 5.00 | 5.07 | < 5.00 | 5.18 | 5.11 | 101 | 98.3 | 93.7 | 93.7 | 95.1 | 92.3 | 82.4 | 86 | 77.6 | 82.9 | 87.8 | 69.4 | 74 | 61.2 | 82.2 | viability, T/C [23]: 61.9%; viability, T/C [24]: 48.6%; viability, T/C [27]: 54.8%; viability, T/C [28]: 47.5%; viability, T/C [30]: 73.3%; viability, T/C [31]: 53.2%; viability, T/C [32]: 53.9%; viability, T/C [33]: 69.5%; viability, T/C [34]: 65.5%; viability, T/C [35]: 59.1%; viability, T/C [36]: 45.5%; viability, T/C [37]: 79.7%; viability, T/C [38]: 57%; viability, T/C [39]: 57.1%; viability, T/C [40]: 43.3%
COc1cccc2c1C(=O)c1c(O)c3c(c(O)c1C2=O)CC(O)(C(=O)CO)CC3OC1CC(N)C(O)C(C)O1 (stereo not given) + CC(CO)NC(=O)c1cc(-c2ccc(Cl)cc2)nn(-c2cnn(C)c2)c1=O | 6.34 | 6.42 | 6.34 | 6.43 | 6.49 | 71.2 | 86.7 | 83.2 | 74.2 | 70.4 | 72.7 | 68.1 | 69.9 | 73.4 | 69.3 | 56.8 | 29.1 | 56 | 21.6 | 64.1 | viability, T/C [23]: 1.94%; viability, T/C [24]: 11.6%; viability, T/C [27]: 2.1%; viability, T/C [28]: 11.6%; viability, T/C [30]: 20.7%; viability, T/C [31]: 2.66%; viability, T/C [32]: 12.9%; viability, T/C [33]: 56.2%; viability, T/C [34]: 9.03%; viability, T/C [35]: 8.71%; viability, T/C [36]: 15.1%; viability, T/C [37]: 51.1%; viability, T/C [38]: 2.91%; viability, T/C [39]: 5.62%; viability, T/C [40]: 12.8%
Nc1ncn(C2CC(O)C(CO)O2)c(=O)n1 (stereo not given) + CC(CO)NC(=O)c1cc(-c2ccc(Cl)cc2)nn(-c2cnn(C)c2)c1=O | < 6.00 | < 6.00 | < 6.00 | < 6.00 | < 6.00 | 97 | 102 | 86.7 | 87.2 | 107 | 87.7 | 82.2 | 82.1 | 79.9 | 70 | 96.9 | 93.3 | 87.8 | 72.2 | 77.7 | viability, T/C [1]: 90.2%; viability, T/C [2]: 100%; viability, T/C [5]: 89.5%; viability, T/C [6]: 100%; viability, T/C [9]: 112%; viability, T/C [10]: 103%; viability, T/C [30]: 82.3%; viability, T/C [13]: 75.4%; viability, T/C [14]: 87.6%; viability, T/C [33]: 81%; viability, T/C [34]: 70%; viability, T/C [17]: 85.8%; viability, T/C [18]: 85.3%; viability, T/C [37]: 66.6%; viability, T/C [38]: 77.1%
